Laboratory results: patent US8680133B2, “Alkyl indole-3-carbinol-derived antitumor agents” (The Ohio State University Research Foundation, priority 2009, dated 2014)

Key:
MALME-3M = experiment: NCI60 screening, Melanoma, MALME-3M; type: cell-based, human
RXF 393 = experiment: NCI60 screening, Renal Cancer, RXF 393; type: cell-based, human
K-562 = experiment: NCI60 screening, Leukemia, K-562; type: cell-based, human
COLO 205 = experiment: NCI60 screening, Colon Cancer, COLO 205; type: cell-based, human
HCT-116 = experiment: NCI60 screening, Colon Cancer, HCT-116; type: cell-based, human
HL-60(TB) = experiment: NCI60 screening, Leukemia, HL-60(TB); type: cell-based, human
NCI-H226 = experiment: NCI60 screening, Non-Small Cell Lung Cancer, NCI-H226; type: cell-based, human
EKVX = experiment: NCI60 screening, Non-Small Cell Lung Cancer, EKVX; type: cell-based, human
NCI-H23 = experiment: NCI60 screening, Non-Small Cell Lung Cancer, NCI-H23; type: cell-based, human
PC-3 xenograft tumor [1] = experiment: PC-3 xenograft tumor growth in nude mice, 450 ppm in the diet; type: in vivo; details: 450 ppm in AIN-76A rodent diet, vs control diet, P<0.05
Experimental: FIG. 3 provides a graph showing the in vivo efficacy of dietary OSU-A9M at 450 ppm in a rodent diet in suppressing PC-3 xenograft tumor growth in nude mice.
Given the increased potency of OSU-A9M compared to the other lead derivatives, an experimental diet was formulated. An AIN-76A rodent diet (American Institute of Nutrition; including primarily casein, sucrose, and corn starch) containing 450 ppm OSU-A9M was made to deliver approximately 50 mg/kg of drug per day to each mouse estimated by food consumption and body weight measurements.

TK-10 = experiment: NCI60 screening, Renal Cancer, TK-10; type: cell-based, human
T-47D = experiment: NCI60 screening, Breast Cancer, T-47D; type: cell-based, human
PC-3 xenograft tumor [2] = experiment: PC-3 xenograft tumor growth in nude mice, oral gavage; type: in vivo; details: after 7 weeks, P<0.05
Experimental: FIG. 2 provides three graphs (A-C) showing the in vivo effects of OSU-A9M (C) versus OSU-A9 (A) and OSU-A9 F (B), each at 25 and 50 mg/kg per day by oral gavage, on suppressing PC-3 xenograft tumor growth in nude mice (n=6).
The efficacy studies were therefore repeated with OSU-A9M and OSU-A9F, following 42 days and 49 days treatment, respectively, versus OSU-A9 with 49-day treatment.
In all three treatments, the body weights of drug-treated mice were not affected. No signs of overt toxicity were observed.

NCI-H322M = experiment: NCI60 screening, Non-Small Cell Lung Cancer, NCI-H322M; type: cell-based, human
A549/ATCC = experiment: NCI60 screening, Non-Small Cell Lung Cancer, A549/ATCC; type: cell-based, human
PC-3 = experiment: NCI60 screening, Prostate Cancer, PC-3; type: cell-based, human
[3] = Homo sapiens, read-out: LC50 (the source's name)

Work on `Cc1ccc2c(c1)c(CO)cn2S(=O)(=O)c1ccc(Cl)c([N+](=O)[O-])c1` [OSU-A9M, [1-(4-chloro-3-nitro-benzenesulfonyl)-5-methyl-1H-indol-3-yl]-methanol] yielded a GI50 (MALME-3M; Homo sapiens, Malme-3M) of 1870 nM, a CC50 (MALME-3M; Homo sapiens, Malme-3M, read-out: LC50 (the source's name)) of 9000 nM and a TGI (MALME-3M; MALME-3M) of 4.10E−6. The “Percent Growth” value (MALME-3M; MALME-3M, Log10 Concentration −4.0) was −75%, the “Percent Growth” value (MALME-3M; MALME-3M, Log10 Concentration −5.0) was −57% and the “Percent Growth” value (MALME-3M; MALME-3M, Log10 Concentration −6.0) was 90%. The “Percent Growth” value (MALME-3M; MALME-3M, Log10 Concentration −7.0) was 78%, the “Percent Growth” value (MALME-3M; MALME-3M, Log10 Concentration −8.0) was 83% and the TGI (RXF 393) was 4.10E−6. The GI50 (RXF 393; Homo sapiens) was 1940 nM, the CC50 (RXF 393; [3]) was 8650 nM and the “Percent Growth” value (RXF 393; Log10 Concentration −4.0) was −85%. For the same molecule, the “Percent Growth” value (RXF 393; Log10 Concentration −5.0) was −60%, the “Percent Growth” value (RXF 393; Log10 Concentration −6.0) was 94% and the “Percent Growth” value (RXF 393; Log10 Concentration −7.0) was 102%. The “Percent Growth” value (RXF 393; Log10 Concentration −8.0) was 101%, the TGI (K-562) was 3.03E−6 and the GI50 (K-562; Homo sapiens, K562) was 1020 nM. The CC50 (K-562; Homo sapiens, K562, read-out: LC50 (the source's name)) was 8960 nM, the “Percent Growth” value (K-562; Log10 Concentration −4.0) was −70% and the “Percent Growth” value (K-562; Log10 Concentration −5.0) was −55%. The “Percent Growth” value (K-562; Log10 Concentration −6.0) was 51%, the “Percent Growth” value (K-562; Log10 Concentration −7.0) was 106% and the “Percent Growth” value (K-562; Log10 Concentration −8.0) was 98%. It also gave a TGI (COLO 205) of 3.14E−6, a GI50 (COLO 205; Homo sapiens) of 1700 nM and a CC50 (COLO 205; [3]) of 5790 nM. For the same molecule, the “Percent Growth” value (COLO 205; Log10 Concentration −4.0) was −87%, the “Percent Growth” value (COLO 205; Log10 Concentration −5.0) was −95% and the “Percent Growth” value (COLO 205; Log10 Concentration −6.0) was 93%. The “Percent Growth” value (COLO 205; Log10 Concentration −7.0) was 92%, the “Percent Growth” value (COLO 205; Log10 Concentration −8.0) was 98% and the TGI (HCT-116) was 1.57E−6. The GI50 (HCT-116; Homo sapiens) was 461 nM, the LC50 (HCT-116; Homo sapiens) was 3970 nM and the “Percent Growth” value (HCT-116; Log10 Concentration −4.0) was −100%. The “Percent Growth” value (HCT-116; Log10 Concentration −5.0) was −100%, the “Percent Growth” value (HCT-116; Log10 Concentration −6.0) was 24% and the “Percent Growth” value (HCT-116; Log10 Concentration −7.0) was 100%. For the same molecule, the “Percent Growth” value (HCT-116; Log10 Concentration −8.0) was 101%, the TGI (HL-60(TB)) was 4.80E−6 and the GI50 (HL-60(TB); Homo sapiens) was 1550 nM. For the same molecule, the CC50 (HL-60(TB); [3]) was 32500 nM, the “Percent Growth” value (HL-60(TB); Log10 Concentration −4.0) was −67% and the “Percent Growth” value (HL-60(TB); Log10 Concentration −5.0) was −32%. For the same molecule, the “Percent Growth” value (HL-60(TB); Log10 Concentration −6.0) was 69%, the “Percent Growth” value (HL-60(TB); Log10 Concentration −7.0) was 84% and the “Percent Growth” value (HL-60(TB); Log10 Concentration −8.0) was 91%. It also gave a TGI (NCI-H226) of 3.32E−6, a GI50 (NCI-H226; Homo sapiens) of 953 nM and a CC50 (NCI-H226; [3]) of 17400 nM. The “Percent Growth” value (NCI-H226; Log10 Concentration −4.0) was −65%, the “Percent Growth” value (NCI-H226; Log10 Concentration −5.0) was −45% and the “Percent Growth” value (NCI-H226; Log10 Concentration −6.0) was 49%. The “Percent Growth” value (NCI-H226; Log10 Concentration −7.0) was 93%, the “Percent Growth” value (NCI-H226; Log10 Concentration −8.0) was 91% and the TGI (EKVX) was 3.15E−6. For the same molecule, the GI50 (EKVX; Homo sapiens) was 1600 nM, the CC50 (EKVX; [3]) was 6210 nM and the “Percent Growth” value (EKVX; Log10 Concentration −4.0) was −93%. For the same molecule, the “Percent Growth” value (EKVX; Log10 Concentration −5.0) was −85%, the “Percent Growth” value (EKVX; Log10 Concentration −6.0) was 85% and the “Percent Growth” value (EKVX; Log10 Concentration −7.0) was 99%. The “Percent Growth” value (EKVX; Log10 Concentration −8.0) was 91%, the TGI (NCI-H23) was 2.89E−6 and the GI50 (NCI-H23; Homo sapiens) was 1530 nM. The CC50 (NCI-H23; [3]) was 5460 nM, the “Percent Growth” value (NCI-H23; Log10 Concentration −4.0) was −96% and the “Percent Growth” value (NCI-H23; Log10 Concentration −5.0) was −97%. For the same molecule, the “Percent Growth” value (NCI-H23; Log10 Concentration −6.0) was 83%, the “Percent Growth” value (NCI-H23; Log10 Concentration −7.0) was 90% and the “Percent Growth” value (NCI-H23; Log10 Concentration −8.0) was 92%. For the same molecule, the “Suppression of the growth of PC-3 xenograft tumors” value (PC-3 xenograft tumor [1]) was 59.6%, the TGI (TK-10) was 2.98E−6 and the GI50 (TK-10; Homo sapiens) was 1560 nM. For the same molecule, the CC50 (TK-10; [3]) was 5710 nM, the “Percent Growth” value (TK-10; Log10 Concentration −4.0) was −89% and the “Percent Growth” value (TK-10; Log10 Concentration −5.0) was −93%. For the same molecule, the “Percent Growth” value (TK-10; Log10 Concentration −6.0) was 84%, the “Percent Growth” value (TK-10; Log10 Concentration −7.0) was 83% and the “Percent Growth” value (TK-10; Log10 Concentration −8.0) was 90%. For the same molecule, the TGI (T-47D) was 2.91E−6, the GI50 (T-47D; Homo sapiens, T47D) was 1120 nM and the CC50 (T-47D; Homo sapiens, T47D, read-out: LC50 (the source's name)) was 7540 nM. For the same molecule, the “Percent Growth” value (T-47D; Log10 Concentration −4.0) was −61%, the “Percent Growth” value (T-47D; Log10 Concentration −5.0) was −65% and the “Percent Growth” value (T-47D; Log10 Concentration −6.0) was 56%. The “Percent Growth” value (T-47D; Log10 Concentration −7.0) was 93%, the “Percent Growth” value (T-47D; Log10 Concentration −8.0) was 95% and the “Suppression of the volume of PC-3 tumor growth” value (PC-3 xenograft tumor [2]; 25 mg/kg per day by gavage) was 44.0%. The “Suppression of the volume of PC-3 tumor growth” value (PC-3 xenograft tumor [2]; 50 mg/kg per day by gavage) was 67.6%, the TGI (NCI-H322M) was 3.10E−6 and the GI50 (NCI-H322M; Homo sapiens) was 1680 nM. The LC50 (NCI-H322M; Homo sapiens) was 5710 nM, the “Percent Growth” value (NCI-H322M; Log10 Concentration −4.0) was −93% and the “Percent Growth” value (NCI-H322M; Log10 Concentration −5.0) was −96%. The “Percent Growth” value (NCI-H322M; Log10 Concentration −6.0) was 93%, the “Percent Growth” value (NCI-H322M; Log10 Concentration −7.0) was 89% and the “Percent Growth” value (NCI-H322M; Log10 Concentration −8.0) was 91%. The TGI (A549/ATCC) was 4.89E−6, the GI50 (A549/ATCC; Homo sapiens) was 2050 nM and the CC50 (A549/ATCC; [3]) was over 100000 nM. For the same molecule, the “Percent Growth” value (A549/ATCC; Log10 Concentration −4.0) was −47%, the “Percent Growth” value (A549/ATCC; Log10 Concentration −5.0) was −41% and the “Percent Growth” value (A549/ATCC; Log10 Concentration −6.0) was 91%. For the same molecule, the “Percent Growth” value (A549/ATCC; Log10 Concentration −7.0) was 94%, the “Percent Growth” value (A549/ATCC; Log10 Concentration −8.0) was 95% and the TGI (PC-3) was 4.32E−6. The GI50 (PC-3; Homo sapiens) was 1620 nM, the CC50 (PC-3; [3]) was 13900 nM and the “Percent Growth” value (PC-3; Log10 Concentration −4.0) was −93%. For the same molecule, the “Percent Growth” value (PC-3; Log10 Concentration −5.0) was −43%, the “Percent Growth” value (PC-3; Log10 Concentration −6.0) was 75% and the “Percent Growth” value (PC-3; Log10 Concentration −7.0) was 74%. The “Percent Growth” value (PC-3; Log10 Concentration −8.0) was 80%.
